{"source": "patent US12546707B2", "about": "“Validation of natural matrices for therapeutic use” (priority 2024, dated 2026)", "system": "primary human chondrocytes (HC) exposed to IL1B", "test": "In vitro cell assay representative of osteoarthritis (transcriptomics, IPA Z-score of biological functions)", "type": "cell-based", "settings": "chondrocytes with IL1B 5 ng/ml, vs pathological state control", "protocol": "Each time one of the batch solutions was added, fresh IL1B [5 ng/ml] was also added to the medium. The time schedule used for experimental setting is as follows: [table] At the end of described treatment periods, cells were washed with 100 μl PBS and lysed and collected in RLT buffer (Qiagen, 1053393) added with β-mercaptoethanol (Sigma, M3148) and DX reagent (Qiagen, 19088) for gene expression analysis experiments. Total RNA was extracted from cells lysates using an QIAsymphony RNA Kit (Qiagen,) with the QIAsymphony SP instrument (Qiagen). The quality and quantity of RNA was determined by A230, A260, A280 and A320 measurements on VarioskanTM LUX multimode microplate reader (Thermo ScientificTM). Integrity of RNA was checked using a 2100 expert_Eukaryote Total RNA Nano Kit (Agilent). Whole transcriptome expression profile was evaluated using a Human ClariomTM S Pico Assay HT (Applied Biosystems, ThermoFisher Scientific) on a GeneTitan MC Instrument (Applied Biosystems, ThermoFisher Scientific), following the manufacturer's instructions. […] Arrays were washed, stained and then scanned using the GeneTitan MC Instrument (Applied Biosystems, ThermoFisher Scientific) and CEL Intensity files were generated by Affymetrix GeneChip Command Console Software (AGCC, ThermoFisher Scientific). […] Ingenuity Pathways Analysis (IPA) (QIAGEN \\Inc., https://www.qiagenbioinformatics.com/products/ingenuitypathway-analysis) was used, for each investigated batch to evaluate modulations of gene expression relevant for effects of interest. The patho-physiological features of state-of-the-art “Osteoarthritis condition” were considered with particular attention to the following areas involved: [table] This knowledge was used to interrogate IPA via the “IPA Bioprofiler” tool, using the following key words: osteoarthritis, arthropathy, formation of cartilage tissue, destruction of cartilage tissue, damage of cartilage, connective tissue disorder, inflammation of joint, immune cell trafficking, oxidative stress and hyaluronic acid. The use of “IPA Bioprofiler” allowed to identify clusters of expressed genes causally linked to each of the identified biological functions and the specific molecular pathway underpinning them. […] Modulation of expressed genes were shown in different intensities of blue (signifying down-modulation) or red (signifying up-modulation). The resulting expected calculated impact, based on the literature, on the related biofunctions was determined by “IPA Molecule Activity Predictor” tool (MAP) and resumed in a heatmap visualization. The colour and intensity thereof were transformed into numerical values.", "key": {"[1]": {"settings": "hallmark Protection from anatomical damage"}}, "data": [{"molecule": "CC1(C)O[C@@H]2C[C@H]3[C@@H]4CCC5=CC(=O)C=C[C@]5(C)[C@@]4(F)[C@@H](O)C[C@]3(C)[C@]2(C(=O)CO)O1", "note": "[Triamcinolone acetonide, Triamcinolone Acetonide]", "values": [{"measurement": "Z-score values: Skeletal and muscular system development and function → articular dysfunction → joint space → Formation of cartilage tissue", "setting": "hallmark Induction of proliferation", "value": "−0.31"}, {"measurement": "Z-score values: Organismal injury and abnormalities → joint inflammation and swelling, difficulty moving a joint → Osteoarthritis", "setting": "[1]", "value": "−0.15"}, {"measurement": "Z-score values: Skeletal and muscular system function → difficulty moving a joint → Non-traumatic arthropathy", "setting": "[1]", "value": "−0.17"}, {"measurement": "Z-score values: Inflammatory disease → inflammation and nociceptions → Inflammation of joint", "setting": "hallmark Reduction of inflammation", "value": "−0.26"}]}]}
